Experimental data published in US20200239530A1, “COMPOUNDS AND METHODS OF MODULATING PROTEIN DEGRADATION” (Vividion Therapeutics, Inc., priority 2017, published 2020).

Columns and labels:
Experiment in all cases: Cysteine liganding, probe competition
Format in all cases: binding
[1] = target: T1, PIAS4 E3 SUMO-protein ligase PIAS4 (Homo sapiens, UniProt Q8N2W9); conditions: for Liganded: PIAS4 Res# 326, uniprot Q8N2W9
T1 construct: Cells were resuspended in cold PBS on ice and sonicated with a probe sonicator to achieve lysis; endogenous in cells
T1 sequence (Q8N2W9 1-510): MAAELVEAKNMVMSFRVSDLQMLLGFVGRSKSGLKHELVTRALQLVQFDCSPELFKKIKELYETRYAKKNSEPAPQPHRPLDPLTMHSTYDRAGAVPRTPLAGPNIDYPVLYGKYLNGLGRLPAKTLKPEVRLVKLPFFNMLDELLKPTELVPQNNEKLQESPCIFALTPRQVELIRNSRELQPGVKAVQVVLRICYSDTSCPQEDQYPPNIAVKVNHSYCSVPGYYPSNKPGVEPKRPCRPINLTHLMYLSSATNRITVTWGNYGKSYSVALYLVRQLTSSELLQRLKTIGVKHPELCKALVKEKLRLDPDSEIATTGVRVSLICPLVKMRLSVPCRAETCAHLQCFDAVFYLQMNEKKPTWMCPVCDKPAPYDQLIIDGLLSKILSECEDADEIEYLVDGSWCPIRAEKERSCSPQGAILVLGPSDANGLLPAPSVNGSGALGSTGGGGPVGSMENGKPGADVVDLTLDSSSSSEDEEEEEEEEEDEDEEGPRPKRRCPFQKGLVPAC
Method in brief: (§1)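 Read-out is loss of desthiobiotin iodoacetamide labelling at cysteines, measured on streptavidin-enriched tryptic peptides. Compound preincubation ran 1 hr at 25° C in PBS lysate holding 5 mg/ml proteome before the probe was added.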

[2] = target: T2, UBR2 E3 ubiquitin-protein ligase UBR2 (Homo sapiens, UniProt Q8IWV8)
T2 construct: Cells were resuspended in cold PBS on ice and sonicated with a probe sonicator to achieve lysis; endogenous in cells
T2 sequence (Q8IWV8 whole entry): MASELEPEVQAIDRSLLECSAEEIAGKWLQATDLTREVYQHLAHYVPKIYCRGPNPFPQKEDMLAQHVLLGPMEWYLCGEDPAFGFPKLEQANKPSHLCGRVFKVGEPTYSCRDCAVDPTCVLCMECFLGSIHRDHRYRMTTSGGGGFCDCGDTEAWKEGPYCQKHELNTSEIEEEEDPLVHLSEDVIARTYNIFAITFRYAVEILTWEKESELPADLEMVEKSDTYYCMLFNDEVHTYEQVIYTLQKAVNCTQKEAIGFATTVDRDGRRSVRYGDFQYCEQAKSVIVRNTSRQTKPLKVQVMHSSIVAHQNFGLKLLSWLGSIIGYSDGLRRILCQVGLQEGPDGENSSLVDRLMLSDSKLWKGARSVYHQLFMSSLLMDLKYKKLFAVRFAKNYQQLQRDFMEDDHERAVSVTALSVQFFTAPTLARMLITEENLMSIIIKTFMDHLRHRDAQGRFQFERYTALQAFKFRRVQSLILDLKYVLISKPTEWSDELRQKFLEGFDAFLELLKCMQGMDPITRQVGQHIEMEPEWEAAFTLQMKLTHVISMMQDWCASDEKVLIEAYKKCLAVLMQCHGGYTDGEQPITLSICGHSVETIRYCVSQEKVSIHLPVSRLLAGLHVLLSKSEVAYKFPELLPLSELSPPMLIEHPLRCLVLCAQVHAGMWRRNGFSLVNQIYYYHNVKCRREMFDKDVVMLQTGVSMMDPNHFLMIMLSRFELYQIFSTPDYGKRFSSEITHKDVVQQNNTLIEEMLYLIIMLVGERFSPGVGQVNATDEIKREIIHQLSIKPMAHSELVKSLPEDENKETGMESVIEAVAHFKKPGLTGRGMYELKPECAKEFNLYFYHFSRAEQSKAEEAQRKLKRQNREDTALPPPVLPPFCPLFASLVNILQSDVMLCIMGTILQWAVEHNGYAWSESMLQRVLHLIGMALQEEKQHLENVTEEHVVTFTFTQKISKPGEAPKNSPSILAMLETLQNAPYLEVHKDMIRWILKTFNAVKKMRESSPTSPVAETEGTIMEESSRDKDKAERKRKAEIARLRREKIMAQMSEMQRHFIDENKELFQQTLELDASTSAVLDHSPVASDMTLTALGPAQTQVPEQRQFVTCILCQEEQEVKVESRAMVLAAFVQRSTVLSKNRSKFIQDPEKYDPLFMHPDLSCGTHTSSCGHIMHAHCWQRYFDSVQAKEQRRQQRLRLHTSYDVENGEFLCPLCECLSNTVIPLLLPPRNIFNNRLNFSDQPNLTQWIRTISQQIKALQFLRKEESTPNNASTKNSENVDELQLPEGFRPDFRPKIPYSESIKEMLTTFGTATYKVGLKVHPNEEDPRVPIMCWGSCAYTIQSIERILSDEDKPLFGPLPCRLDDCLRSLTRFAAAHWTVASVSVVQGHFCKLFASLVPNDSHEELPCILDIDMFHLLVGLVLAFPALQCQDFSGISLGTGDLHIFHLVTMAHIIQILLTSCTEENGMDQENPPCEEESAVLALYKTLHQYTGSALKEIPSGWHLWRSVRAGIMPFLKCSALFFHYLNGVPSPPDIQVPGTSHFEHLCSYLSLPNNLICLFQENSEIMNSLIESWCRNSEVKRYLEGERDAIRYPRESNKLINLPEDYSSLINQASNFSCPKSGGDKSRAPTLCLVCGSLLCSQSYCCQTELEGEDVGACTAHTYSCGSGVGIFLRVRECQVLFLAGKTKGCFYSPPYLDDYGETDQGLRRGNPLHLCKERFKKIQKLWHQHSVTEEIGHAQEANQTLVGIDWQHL
Method in brief: as §1

[3] = target: T3, CDK17 Cyclin-dependent kinase 17 (Homo sapiens, UniProt Q00537); conditions: for Liganded: CDK17 Res# 233, uniprot Q00537
T3 construct: 200 μL of lysate containing 5 mg/ml proteome was treated with 2 μL of 100× compound stock; endogenous in cells
T3 sequence (Q00537 whole entry): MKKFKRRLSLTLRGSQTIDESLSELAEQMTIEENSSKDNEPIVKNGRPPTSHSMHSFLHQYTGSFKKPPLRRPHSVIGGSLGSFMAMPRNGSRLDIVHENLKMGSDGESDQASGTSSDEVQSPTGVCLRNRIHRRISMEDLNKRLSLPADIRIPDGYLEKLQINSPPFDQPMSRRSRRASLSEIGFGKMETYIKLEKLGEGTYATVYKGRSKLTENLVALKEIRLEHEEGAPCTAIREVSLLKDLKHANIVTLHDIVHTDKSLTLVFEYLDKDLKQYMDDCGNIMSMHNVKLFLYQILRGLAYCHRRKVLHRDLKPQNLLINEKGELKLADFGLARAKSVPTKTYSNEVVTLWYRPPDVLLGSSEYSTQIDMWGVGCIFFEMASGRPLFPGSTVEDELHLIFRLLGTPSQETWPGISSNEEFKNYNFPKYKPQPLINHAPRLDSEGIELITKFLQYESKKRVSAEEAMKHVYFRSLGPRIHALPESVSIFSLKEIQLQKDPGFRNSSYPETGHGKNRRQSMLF
Method in brief: as §1

Row | SMILES | Liganded [1] | Liganded ([2]; UBR2 Res# 1717, uniprot Q8IWV8) | Liganded [3] | KB03_100 uM_percent_inhibition ([1]; UniProt Q8N2W9, 100 uM) [%] | 100 Max ([1]; uniprot Q8N2W9) | 100 ave ([1]; uniprot Q8N2W9) | 500 Max ([1]; uniprot Q8N2W9) | 500 ave ([1]; uniprot Q8N2W9) | 100 Max ([2]; uniprot Q8IWV8) | 100 ave ([2]; uniprot Q8IWV8) | 500 ave ([2]; uniprot Q8IWV8) | 500 Max ([2]; uniprot Q8IWV8, unit assumed) [%] | 100 Max ([3]; uniprot Q00537) | 100 ave ([3]; uniprot Q00537) | 500 ave ([3]; uniprot Q00537) | 500 Max ([3]; uniprot Q00537, in % (unit assumed))
1 | COc1ccc2c(c1)CCCN2C(=O)CCl [KB02] | YES | YES | YES | – | – | – | – | – | – | – | – | – | – | – | – | –
2 | O=C(CCl)Nc1cc(C(F)(F)F)cc(C(F)(F)F)c1 [KBO3] | YES | – | YES | 80 | 35.5 | 30.1 | 87.0 | 75.4 | 18.5 | 8.3 | 60.0 | 65.9 | 50.67 | 28.2075 | 79.225 | 80.44
